Experimental data: patent US6605115B1, “Method and composition for inhibiting cardiovascular cell proliferation” (Board of Trustees of the Leland Stanford Junior University, priority 1999, dated 2003)

Experiments:
cytokine-stimulated VSMC [1] = experiment: Effect of arginine oligomers on NO production in cytokine-stimulated VSMC (NO2, Griess); format: cell-based, rat
Procedure: (§1) Rat VSMCs were prepared from the media layer of thoracic aorta of Sprague-Dawley rats by the explant method. The cells were cultured in Dulbecco's modified Eagle's medium (DMEM, Gibco BRL, Gaithersburg, Md.) containing 10% fetal calf serum, 100 U/ml penicillin and 100 μg/ml streptomycin at 37° C. under a humidified atmosphere containing 5% CO2. After subconfluent growth, cells were cultured with MEM Select Amine Kit (Gibco BRL, Gaithersburg, Md.) to be treated by specific concentrations of extracellular free L-arginine. Experiments were performed using cultured cells at passage levels of 5-10.
(§2) Extracellular NO production was measured as its stable oxidative metabolite, nitrite (NO2). At the end of each incubation, samples of the medium (80 μl) were collected, and NO2 measurement was performed using the Griess reaction facilitated by a commercial calorimetric assay (Cayman Chemical, Ann Arbor, Mich.). Values of NO2 production were corrected with relative cell count assessed by a cell proliferation kit II (XTT) (Boeheringer Mannheim, Germany).
Subconfluent cells were pre-incubated with medium containing 100 μM arginine for 24 hours. The cells were then transiently pretreated with each arginine polymer for 30 minutes. After translocation, the cells were incubated with a mixture of IFN-γ (100 U/ml) and LPS (100 μg/ml) in medium containing 100 μM L-arginine for another 24 hours. In some experiments, L-NMMA (1 mM), a nitric oxide synthase inhibitor, was added to the medium.

cytokine-stimulated VSMC [2] = experiment: as above; format: cell-based, rat; details: exposure 5 minutes; observed for 24 hours; free L-arginine at 1 mM
[3] = system: human umbilical vein endothelial cells (ECV304); experiment: In vitro translocation of biotin-labeled peptides into endothelial cells; format: cell-based; details: VSMC and endothelial cells in culture
Procedure: Spontaneously transformed human umbilical vein endothelial cells (ECV304, ATCC) were cultured in medium M199 (Irvine Scientific) containing 10% fetal bovine serum (FBS), 100 IU/ml penicillin and 100 μg/ml of streptomycin (Gibco BRL). Confluent cells were washed and placed in serum-free medium. After 2 hours, the cells were incubated in presence of biotin labeled peptides, as bL-R7, or bD-R7, or bL-K7 (0.1, 1.0, and 10.0 μM). After 30 minutes of incubation, cells were washed 3 times with phosphate-buffered saline (PBS), fixed in ethanol/acetone; washed in PBS; incubated for 30 minutes with peroxidase suppressor (ImmunoPure, Pierce) to block endogenous peroxidase activity; and then incubated with 5 μg/ml of horse-radish peroxidase (HRP) conjugated strepavidin (Pierce) for 30 minutes. Substrate of HRP, diaminobenzidine (DAB, Sigma), was added to the cells. The reaction was terminated by washing in distilled water after a 60-second incubation. This experiment was repeated 3 times.

vein grafts = experiment: Vein graft model: vessel morphometry 28 days after surgery; format: in vivo, New Zealand white rabbits
Procedure: Male New Zealand white rabbits (3.0-3.5 kg) fed standard diets were anesthetized with a mixture of ketamine (40 mg/kg) and xylazine (5 mg/kg) intramuscularly. The left external jugular vein was exposed through a longitudinal neck incision. The jugular vein was excised, gently flushed and immersed in PBS (control) or PBS containing either L-R7 (10.0 μM) or D-r7 (10.0 μM) for 30 minutes.
The right common carotid artery was exposed and clamped at the both proximal and distal ends. The treated vein segment was washed with PBS and then anastomosed in a reverse end-to-side fashion into the carotid artery, using continuous 8-0 polypropylene sutures. The common carotid artery was ligated and dissected between the two anastomoses, and the wound was closed with 3-0 nylon suture.
Vein graft segments were harvested on the 28th surgical day. Graft segments were fixed in 10% buffered formalin with gentle intraluminal pressure to maintain the physiological graft configuration. The middle portion of the paraffin samples were sectioned (5 μm) and stained with hematoxylin/eosin for light microscopic examination (FIGS. 8A-C). Three sections of each graft, taken at 0.5 mm intervals, were analyzed by planimetry by a observer blinded to the treatment group. The cross-sectional areas of the lumen, intima and media was digitized with the use of the Image Analyst program (Automatrix). The ratio of intima to media (I/M) area was calculated.

vein graft segments = experiment: Ex vivo NOx production from vein graft harvested 3 days after surgery; format: in vivo, New Zealand white rabbits; details: vein grafts harvested after 3 days, absence of calcium ionophore
Procedure: Vein grafts were harvested 3 days after surgery, as described in Example 7. Vein graft segments were incubated in 1 me of Hanks' buffered saline solution (HBSS, Irvine Scientific) containing Ca^2+ (1.0 mM) and L-arginine (100 μM, Sigma) at 37° C. for 2 hours. NOx (nitrate and nitrite) production was measured either in the absence (basal) or presence (stimulated) of calcium ionophore (A23187, 10.0 μM, Sigma). Samples of the medium (80 μL) were collected, and NOx measurement was performed using the Griess reaction facilitated by a commercial calorimetric assay (Cayman Chemical).

Rat aortic VSMC = experiment: VSMC proliferation assay (XTT); format: cell-based; details: 10.0 μM, 30 minutes, then growth medium 0.5% FBS for 48 hours; vs vehicle
Procedure: Rat aortic VSMC were grown to 50% confluence in 96-well cell culture plates. VSMC were then washed and incubated with serum free DMEM for 48 hours to obtain quiescent nondividing cells. Thereafter, VSMC were treated with vehicle, L-R7 (10.0 μM), or D-R7 (10.0 μM) for 30 minutes. After the treatment, cells were washed, and further incubated with serum containing DMEM (0.5%, FBS). Cells were harvested after 48 hours of incubation. Cell count was performed with commercial cell proliferation assay kit using spectrophotometer (XTT, Boehringer Mannheim). As a negative control, cells treated with vehicle and incubated with DSF were used. As an index of cell proliferation, the OD ratio of each treatment group to negative control group was calculated as an index of cell proliferation.

[4] = system: coronary vessels of transplanted PVG rat donor hearts; experiment: Heart transplant study (graft coronary artery disease, GCAD); format: in vivo; details: for % affected vessels / % luminal narrowing / I/M ratio: intracoronary 50 uM, 30 minutes
Procedure: In this study, PVG rat donor hearts (n=48) were transplanted heterotopically into the abdomen of ACI recipients. Donor hearts received either intracoronary PBS or intracoronary 50 uM (L)-arginine polymer (L-R5 or L-R9) for 30 minutes. (D-arginine polymers were not included in this study.) Each of these groups was further divided into 60 and 90 day study animals (n=6 each). Percent luminal narrowing, intima to media ratio (I/M), and percent affected vessels were determined as described in Example 11, below. Transfection efficiency was determined by infusing biotinylated R5 and R9, as in the preceding studies, and calculating the percentage of biotin positive nuclei divided by total number of nuclei.
PVG rat donor hearts (n=48) were transplanted heterotopically into the abdomen of ACI recipients. Donor hearts received either intracoronary PBS or intracoronary 50 uM (L)-arginine polymer (L-R5 or L-R9) for 30 minutes. Each group was further divided into 60 and 90 day study animals (n=6 each). Tissue cross sections (5μ) were stained with EVG (Elastica-van Gieson) preparation, and vessels were scored using computerized morphometry for analysis of % luminal narrowing, intima to media ratio (I/M), and % affected vessels. Transfection efficiency was determined by infusing biotinylated R5 and R9, as in preceding examples, and calculating the percentage of biotin positive nuclei divided by total number of nuclei. Results are described in Section IV C, above.

cell membrane = details: previously demonstrated; cited from earlier work
rat VSMC = experiment: Stimulation of cells with interferon-γ and LPS: NO2 accumulation and dependence on extracellular L-arginine; format: cell-based; details: IFN-γ dose
Procedure: as §1, §2
Cells were plated at a density of 5×10^3 per well into 96-well plates. […] After 24 hours of incubation, the cells were then treated with a mixture of IFN-γ (100 U/ml) and LPS (100 μg/ml) in the medium containing the same dose of L-arginine for another 24 hours, and nitrite (NO2) accumulation in the culture medium was quantified.

## N=C(N)NCCC[C@H](N)C(=O)O [L-arginine, reference compound]
cytokine-stimulated VSMC [1]; R7 10 μM pretreatment, free L-arginine up to 1 mM
  elevation of NO production: not observed
cytokine-stimulated VSMC [2]
  NO biosynthesis after 5 minutes exposure: did not significantly increase NO biosynthesis

## hepta-D-arginine [D-r7]
[3]
  translocation across cytoplasmic and nuclear membranes: very efficient at translocating across both cytoplasmic and nuclear membranes
cytokine-stimulated VSMC [1]; 100 μM, 30 minutes
  NO production: did not increase the NO production
Vein grafts
  myointima formation: substantially less myointima formation
Vein grafts; 10.0 μM
  intima/media ratio (I/M): 0.8±0.2
Vein grafts; 10.0 μM, 30 minutes immersion
  intimal area: 1.1±0.4 mm^2
Vein grafts; 10.0 μM, vs control
  reduction of intimal area: about 35%
Vein graft segments
  Basal NOx production: 48±8 nM/mg tissue/hr
Rat aortic VSMC
  VSMC proliferation: significantly inhibited

## penta-L-arginine [R5]
cytokine-stimulated VSMC [1]; pretreatment 30 minutes, then IFN-γ and LPS, 100 μM extracellular L-arginine
  NO production: no significant enhancement of NO production
Vein grafts
  myointima formation: not effective in inhibiting myointima formation
[4]; 60 and 90 days
  GCAD compared to PBS controls: essentially no difference in GCAD
[4]; 60 days
  % affected vessels: 18.9 ± 7%
  % luminal narrowing: 12.6 ± 6.7%
  I/M ratio: .13 ± .07
[4]; 90 days
  % affected vessels: 18.5 ± 11.9%
  % luminal narrowing: 14.2 ± 12%
  I/M ratio: .16 ± .14
[4]; biotinylated oligomer infused
  transfection of coronary vessels: minimal transfection of coronary vessels
Cell membrane
  translocation across the cell membrane: not to translocate across the cell membrane

B1: IFN-γ: Recombinant rat recombinant interferon-γ (protein, UniProt P01581 23-156, looked up)
Interferon gamma: QGTLIESLESLKNYFNSSSMDAMEGKSLLLDIWRNWQKDGNTKILESQIISFYLRLFEVLKDNQAISNNISVIESHLITNFFSNSKAKKDAFMSIAKFEVNNPQIQHKAVNELIRVIHQLSPESSLRKRKRSRC
Rat VSMC
  effect on NO biosynthesis: dose-dependent
